{"source": "patent US5734052A", "about": "(Merrell Pharmaceuticals Inc., priority 1995, dated 1998)", "key": {"adenosine A-2 receptors": {"target": "T1, adenosine A-2 receptors (Rattus norvegicus, UniProt P30543)", "T1 construct": "tissue Charles River; host or cells: striatal membranes of young male rats (C-D strain)", "T1 sequence (P30543 whole entry)": "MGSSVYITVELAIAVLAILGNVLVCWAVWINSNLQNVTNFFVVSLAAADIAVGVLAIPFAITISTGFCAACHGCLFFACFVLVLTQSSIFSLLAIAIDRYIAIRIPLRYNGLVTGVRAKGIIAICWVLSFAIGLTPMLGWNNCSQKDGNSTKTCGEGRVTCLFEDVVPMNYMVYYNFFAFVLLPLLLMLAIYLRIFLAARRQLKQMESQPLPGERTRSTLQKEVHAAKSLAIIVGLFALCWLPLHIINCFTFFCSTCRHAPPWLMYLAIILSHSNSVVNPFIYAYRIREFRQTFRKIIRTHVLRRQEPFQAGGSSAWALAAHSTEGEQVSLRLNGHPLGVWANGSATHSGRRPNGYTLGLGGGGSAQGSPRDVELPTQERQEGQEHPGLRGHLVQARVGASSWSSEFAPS", "assay": "Affinity for brain adenosine A-2 receptors ([3H]NECA competition, striatal membranes)", "assay_type": "binding", "details": "rat brain striatum membranes, 1 μM CHA in tube addition, 25° C., 60 minutes, read-out: A2 Ki", "method": "Young male rats (C-D strain), obtained from Charles River, are killed by decapitation and the brain was removed. Membranes for ligand binding are isolated from rat brain striatum. The tissue is homogenized in 20 vol ice-cold 50 mM Tris-HCl buffer (pH 7.7) using a polytron (setting for 6 to 20 seconds). The homogenate is centrifuged at 50,000×g for 10 minutes at 4° C. The pellet is again homogenized in a polytron in 20 vol of buffer, and centrifuged as before. The pellet is finally resuspended in 40 vol of 50 mM Tris-HCl (pH 7.7) per gram of original wet weight of tissue.\nIncubations are carried out at 25° C. for 60 minutes. Each tube is filtered through GF/B glass fiber filters using a vacuum. The filters are rinsed two times with 5 ml of the ice-cold buffer. […] The filters are counted by liquid scintillation spectrometry.\nSpecific binding of [3H]NECA is measured as the excess over blanks run in the presence of 100 μM 2-chloro-adenosine. Total membrane-bound radioactivity is about 2.5% of that added to the test tubes. […] Specific binding to membranes is about 50% of the total bound."}, "adenosine receptor": {"test_system": "adenosine receptor", "details": "in vivo; cited from earlier work"}, "A-1 receptors": {"test_system": "A-1 receptors", "details": "in vitro, A-1 vs A-2; cited from earlier work"}, "Adenosine A-1 receptor [1]": {"target": "T2, Adenosine A-1 receptor (Rattus norvegicus, UniProt P25099)", "T2 sequence (P25099 1-326)": "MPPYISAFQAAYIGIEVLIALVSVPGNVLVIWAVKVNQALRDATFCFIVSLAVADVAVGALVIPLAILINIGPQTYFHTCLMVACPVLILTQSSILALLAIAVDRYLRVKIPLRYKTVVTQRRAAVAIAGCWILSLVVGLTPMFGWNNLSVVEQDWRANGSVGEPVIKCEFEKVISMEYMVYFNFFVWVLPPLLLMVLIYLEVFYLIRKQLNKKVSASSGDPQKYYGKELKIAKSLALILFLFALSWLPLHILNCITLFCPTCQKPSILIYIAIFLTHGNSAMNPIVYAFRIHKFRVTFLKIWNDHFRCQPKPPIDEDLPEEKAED"}, "Adenosine A-1 receptor [2]": {"target": "T2, Adenosine A-1 receptor", "assay": "Affinity for brain adenosine A-1 receptor binding sites ([3H]cyclohexyladenosine competition)", "details": "ratio of A2 Ki to A1 Ki"}}, "data": [{"smiles": "CCCn1c(=O)c2nc(C3CCc4ccccc4C3)[nH]c2n(CCC)c1=O", "note": "(stereo not shown) [1,3-Dipropyl-8-(1,2,3,4-tetrahydronaphthalen-2-yl)-3,9-dihydropurine-2,6-dione]", "values": [{"measurement": "Ki", "setting": "adenosine A-2 receptors", "result": 10300, "unit": "nM"}]}, {"smiles": "CCCn1c(=O)c2[nH]c(-c3ccc(OCC(=O)NCCN)cc3)nc2n(CCC)c1=O", "note": "[XAC]", "values": [{"measurement": "potency in antagonizing effects of adenosine analogs on heart rate vs blood pressure", "setting": "adenosine receptor", "result": "much more potent in antagonizing the effects of adenosine analogs on heart rate than on blood pressure"}]}, {"smiles": "CCCn1c(=O)c2[nH]c([C@@H]3CCC[C@H]3c3ccccc3)nc2n(CCC)c1=O", "note": "(relative stereo) [8-(trans-2-Phenylcyclopentyl)-1,3-dipropyl-3,9-dihydropurine-2,6-dione]", "values": [{"measurement": "Ki", "setting": "adenosine A-2 receptors", "result": 2720, "unit": "nM"}]}, {"smiles": "CCCn1c(=O)c2[nH]c(-c3ccc(OCC(=O)O)cc3)nc2n(CCC)c1=O", "note": "[XCC]", "values": [{"measurement": "adenosine receptor selectivity", "setting": "A-1 receptors", "result": "adenosine receptor nonselective"}]}, {"smiles": "CCCn1c(=O)c2nc(CC(C)c3ccccc3)[nH]c2n(CCC)c1=O", "note": "(stereo not shown) [8-(2-Phenylpropyl)-1,3-dipropyl-3,9-dihydropurine-2,6-dione]", "values": [{"measurement": "Ki", "setting": "adenosine A-2 receptors", "result": 1740, "unit": "nM"}, {"measurement": "Ki", "setting": "Adenosine A-1 receptor [1]", "result": 94.3, "unit": "nM"}, {"measurement": "A2/A1", "setting": "Adenosine A-1 receptor [2]", "result": 18}]}]}
